Test results published in patent publication US7419979B2, “Derivatives of 6-{4-[4-(1H-indole-2-sulphonyl)-piperazin-1-carbonyl-phenyl]}pyradizin-3-one” (AstraZeneca AB, priority 2004, dated 2008).

Target: T1, human FXa (Homo sapiens, UniProt P00742)
T1 construct: human FXa, Haematologic Technologies Inc; purchased Haematologic Technologies Inc
Assay: Measurement of Factor Xa Inhibition (chromogenic substrate method)
Type: biochemical
Details: inhibition of Factor Xa activity, screen a); chromogenic substrate S-2765, 40 min at 37° C.; specimen results
Procedure: a) Measurement of Factor Xa Inhibition
The FXa inhibitor potency was measured with a chromogenic substrate method, in a Plato 3300 robotic microplate processor (Rosys AG, CH-8634 Hombrechtikon, Switzerland), using 96-well, half-volume microtiter plates (Costar, Cambridge, Mass., USA; Cat No 3690). Stock solutions of test substance in DMSO (72 μL), 10 mmol/L, alternatively 1 mmol/L were diluted serially 1:3 (24+48 μL) with DMSO to obtain ten different concentrations, which were analyzed as samples in the assay, together with controls and blanks. As control sample melagatran was analysed. The dilutions of each test substance were analyzed consecutively, row-wise on the microtiter plate, with wash-cycles between substances to avoid cross-contamination. […] The final assay concentrations were: test substance 0.0068-133, respectively 0.00068-13.3 μmol/L, S-2765 0.40 mmol/L (KM=0.25 mmol/L) and FXa 0.1 nmol/L. The linear absorbance increase at 405 nm during 40 min incubation at 37° C. was used for calculation of percent inhibition for the test samples, as compared to references without inhibitor and/or enzyme. […]

T1 sequence (P00742 235-488 limits assumed): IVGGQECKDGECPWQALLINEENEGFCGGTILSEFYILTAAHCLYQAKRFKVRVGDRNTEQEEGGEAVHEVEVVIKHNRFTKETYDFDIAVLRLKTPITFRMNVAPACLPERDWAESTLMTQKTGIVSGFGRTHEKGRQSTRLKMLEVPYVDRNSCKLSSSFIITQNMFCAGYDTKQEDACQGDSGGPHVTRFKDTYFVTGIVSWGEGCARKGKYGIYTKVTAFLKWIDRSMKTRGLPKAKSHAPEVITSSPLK
T1 sequence (P00742 41-179 partner limits assumed): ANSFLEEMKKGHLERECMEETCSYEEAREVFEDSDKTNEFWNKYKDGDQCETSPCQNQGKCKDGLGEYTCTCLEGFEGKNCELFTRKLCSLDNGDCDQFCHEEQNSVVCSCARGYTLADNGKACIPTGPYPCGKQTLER

IC50 [nM]	SMILES
55	CNCCn1nc(-c2ccc(C(=O)N3CCN(S(=O)(=O)c4cc5cc(Cl)ccc5[nH]4)CC3)cc2)ccc1=O [Example 3, 6-{4-[4-(5-Chloro-1H-indole-2-sulphonyl)-piperazine-1-carbonyl]-phenyl}-2-(2-methylamino-ethyl)-2H-pyridazin-3-one]
38	COCCOCCn1nc(-c2ccc(C(=O)N3CCN(S(=O)(=O)c4cc5cc(Cl)ccc5[nH]4)CC3)cc2)ccc1=O [Example 9, 6-{4-[4-(5-Chloro-1H-indole-2-sulphonyl)-piperazine-1-carbonyl]-phenyl}-2-[2-(2-methoxy-ethoxy)-ethyl]-2H-pyridazin-3-one]
